A short description of data set [1]: Test article handling / stability information. In kind it is physicochemical. Conditions: room temp.
For data set [2] the following is noted: preclinical data; cited from earlier work.
Data set [3] can be described thus: Drug distribution of Compound 1 in mouse plasma, brain and perilymph after oral dosing. The settings on record: 2 h after a 300 mg/kg p.o. dose. In kind it is in vivo. The method, then:
Complete ADME and PK assessment of Compound 1 and Compound 2 at several doses by oral and intratympanic (IT) dosing in wild-type mice and in transgenic efflux-pump knock-out mice to benchmark compound exposure. […] Drug distribution of Compound 1 in a mouse was determined after dosing at 300 mg/kg.

The test system of another data set is six-week-old B6 mice. Nature of the data set: Noise-induced hearing loss in mice after moderate noise exposure (ABR thresholds, IHC synaptic ribbons), orally administered compound. The format is in vivo, mouse. The text has this:
FIGS. 9A-9C depict that Compound 1 administration is protective against mid- to high-frequency hearing loss and synaptic ribbon loss. (A) Threshold elevation two-weeks after moderate noise exposure is reduced in six-week-old B6 mice treated with orally administered Compound 1 either prior or after noise exposure. […] (C) Quantification of paired synaptic ribbons in mice two weeks after exposure to moderate noise given vehicle (top row) and Compound 1 (bottom row). (n=4; scale bar=[…]).
Inducing NIHL in mice. To induce NIHL, mice are exposed to octave band noise (OBN) with a center frequency of 10 kHz for 2 hours using a method adapted from Kujawa, Sharon G., and M. Charles Liberman. “Adding insult to injury: cochlear nerve degeneration after “temporary” noise-induced hearing loss.” Journal of Neuroscience 29.45 (2009): 14077-14085., which is incorporated herein by reference in its entirety.
There has been increasing interest in AMPK activation in human disease. […] The activation pathways and downstream targets of AMPK differ depending on its subcellular localization (FIG. 8C). In response to energy stress, LKB1 activates cytoplasmic and lysosomal AMPK in an axin-dependent manner as exemplified by phosphorylation of the AMPK target ACC1, whereas it activates mitochondrial AMPK in an axin-independent manner as exemplified by phosphorylation of the AMPK target ACC2. […]

A further data set is described as follows: PAMPA permeability. The format is in vitro ADME. Background: The PAMPA barrier holds no transporters, so it reflects passive diffusion.
The conditions of data set [4]: analysis of known AMPK activators; cited from earlier work.
Data set [5] can be described thus: Concentration in perilymph and plasma following intratympanic dosing in two mouse strains (LC-MS/MS). The format is in vivo, C57BL/6J and FVB mice. The settings on record: 5 μL of 5 mg/mL in 5% DMSO-95% Poloxamer 407 solution, all plasma data points except one. The method, then:
Compound 1 was dissolved DMSO and added to a cold solution of 20% Poloxamer 407 in PBS. The mixture was vortexed to give a solution of final solution of 5 mg/mL Compound 1 in 5% DMSO-95% Poloxamer 407 solution.
In fully anesthetized mice, the mouse bulla was reached through the digastric and sternocleidomastoid muscles and a 27-gauge needle was used to drill an opening adjacent to the round window niche. 5 μL of Compound 1 in the cold 5%/95% DMSO/Poloxamer 407 hydrogel vehicle was introduced by intratympanic injection in both C57BL/6J and FVB mice. Upon reaching the desired time point, mice were euthanized under deep anesthesia. Blood from the heart was collected to determine drug plasma levels. The mouse bulla was re-exposed to verify the injection site and all possible drug remaining were removed from inner ear before collecting the perilymph from the apical side of the cochlea.
Drug levels were measured using LC-MS/MS (Q-trap) with 500 nM indomethacin as the internal standard. Perilymph samples were diluted 10× in plasma. An aliquot of 1 μL sample was protein precipitated with 50 μL IS, the mixture was vortex-mixed well and centrifuged at 3600 rpm for 10 min, Room Temp. 10 μL supernatant was injected for LC-MS/MS analysis. […]

In the next data set the test system is AMPK. In words: AMPK activation in inner and outer hair cells of treated mice. The format is in vivo, mouse. From the text: There has been increasing interest in AMPK activation in human disease. […] The activation pathways and downstream targets of AMPK differ depending on its subcellular localization (FIG. 8C). In response to energy stress, LKB1 activates cytoplasmic and lysosomal AMPK in an axin-dependent manner as exemplified by phosphorylation of the AMPK target ACC1, whereas it activates mitochondrial AMPK in an axin-independent manner as exemplified by phosphorylation of the AMPK target ACC2. By contrast, activation of nuclear AMPK in response to elevated intracellular Ca^2+ levels are mediated by CaMKK2. For the observed noise-induced activation of nuclear AMPK in IHCs, in the absence of which (γ2 deficiency) mice suffer greater synaptic ribbon morphometric changes and NIHL (FIGS. 3A-3D & 4A-4E), AMPK may be activated by CaMKK2, especially given that physiological sound relay to the auditory nerve in IHCs involves transient Ca2+ elevation.

Consider one compound from US20240180882A1, “COMPOUNDS FOR PROTECTION OF NOISE-INDUCED HEARING-LOSS” (The Regents of the University of California, priority 2021, published 2024).

Usually Papp stands for the rate of passage across a membrane or cell layer, normalised by area and donor concentration. Low values mean slow passage, high ones fast passage.

Where two headings read alike, the source gives them in different places.

`O[C@@H]1CO[C@H]2[C@@H]1OC[C@H]2Oc1nc2nc(-c3ccc(-c4ccccc4)cc3)c(Cl)cc2[nH]1` [Compound 1, (3R,3aR,6R,6aR)-6-((5-([1,1′-biphenyl]-4-yl)-6-chloro-3H-imidazo[4,5-b]pyridin-2-yl)oxy)hexahydrofuro[3,2-b]furan-3-ol]: the “Stability of test article” value in data set [1] is reported as “Compound 1 stable at room temp”. Moreover, the “Effect on glucose homeostasis” value in data set [2] is “improve glucose homeostasis”. Moreover, the concentration at 2 h was 45 ± 5 µM in data set [3] (brain, read-out: Brain level of Compound 1); 0.87 ± 0.04 µM in data set [3] (perilymph, read-out: Perilymph level of Compound 1); 443 ± 64 µM in data set [3] (plasma, read-out: Plasma level of Compound 1). Moreover, in the data set on six-week-old B6 mice (orally administered either prior or after noise exposure, six-week-old B6 mice), the “ABR threshold elevation two weeks after moderate noise exposure” value was “reduced”. Further, the “IHC (32 kHz region) synaptic ribbon counts after moderate noise exposure” value in the data set on six-week-old B6 mice (two weeks after exposure to moderate noise, vs vehicle, n=4) is listed as “preservation”. The same compound registered a Papp in “PAMPA permeability” of 24 ×10⁻⁶ cm/s. The “Passive permeability (in words)” value in data set [4] was “high passive permeability”. Also, the “Plasma concentration following intratympanic dosing” value in data set [5] is “below the level of detection”. In addition, the “AMPK activation in hair cells” value in the data set with AMPK is “nuclear and cytoplasmic activation of AMPK in both inner and outer hair cells”.
